From article PMC10141580, “Cyclic Dichalcogenides Extend the Reach of Bioreductive Prodrugs to Harness Thiol/Disulfide Oxidoreductases: Applications to seco-Duocarmycins Targeting the Thioredoxin System” (ACS Central Science, 2023)
Like-named read-outs stand apart in the source and are kept apart here.

Key:
HeLa-HRE cells = test: Resazurin cytotoxicity assay, HeLa-HRE, 48 h; conditions: for IC50(HeLa)/IC50(A549): ratio HeLa vs A549; for IC50: read-out: IC50(nM): HeLa, HeLa, 48 h
Protocol: (§1) We used A549 lung cancer and HeLa cervical cancer cell lines for initial screening of the prodrugs.
HeLa-HRE cells were treated with prodrugs of the
Dose -response curves were calculated from at least 27 incremental single concentrations over a
range of at least three log units.

A549 cells = test: Resazurin cytotoxicity assay, A549, 72 h; conditions: read-out: IC50(nM): A549
Protocol: as §1
Fi gure S9: Cell ular resazurin-based cytotoxi ci ty as s a y.
Dose -response curves were calculated from at least 27 incremental single concentrations over a range
of at least three log units. Individual experiments with annotated experiment numbers are shown for each prodrug

[1] = Cell-free HPLC reduction assay (GSH or TCEP challenge); conditions: 5 mM GSH (50 equiv), 24 h
Description: These performance features had not been tested with naphthols, so we used HPLC to test them and show their reduction-based activation sequence (Figure 2c and Figures S4–S6).
In brief, treatment with the quantitative reductant TCEP triggered a reaction cascade matching the activation sequence we expected (Figure 2c): dichalcogenides are reduced to dichalcogenols that cyclize, giving the naphthol cargos (plus thiol trigger byproduct) that evolve to the activated cyclopropanes (Figure 5).
The mobile phase consists of eluent A: water (analytical
grade, 0.1% formic acid) and eluent B: MeCN (analytical grade, 0.1% formic acid).
using a gradient of 10% B t o 90% B over 10 min.
Reduction assay using TCEP and GSH
tris(2-carboxyethyl)phospine) (TCEP, 5 mM in TE-bu f f e r ) , or reduced glut at hione (GSH, 50 mM in TE-buf f er) or
else blank TE-buffer. Final concentrations: Prodrug (0.1 mM) , TCEP ( 0. 5 mM) , G SH ( 5 mM). The blank sample
was measured after 10 min (“pure”) and 24 h (“O H-“) to control for basic hydrolysis. The GSH sample was
measured after 24 h to control for monothiol-based reductive release. The TCEP sample was measured at several […]
extracted for each of the intermediate species and final r elease products. Peak areas were calculated relative to
the sum of all peak areas at 320 nm to quantify individual species at each timepoints. […]

[2] = system: NCI-60 standardized human tumor cell line panel; test: cells; format: cell-based; conditions: AZI sheet, read-out: GI50

For `CN1CCN(C(=O)Oc2cc3c(c4ccccc24)C(CCl)CN3C(=O)c2cc3cc(OCCCN4CCC4)ccc3[nH]2)C2CSSCC21` (mixture of isomers) [Me-SS66C-CBI-AZI], the “IC50(HeLa)/IC50(A549)” value (HeLa-HRE cells) was 33, the IC50 (HeLa-HRE cells) was 400 nM and the IC50 (A549 cells) was 12 nM. For the same molecule, the “release/reduction on GSH challenge” value [1] was “no disulfide reduction/prodrug release was indicated”, the GI50 ([2]; 786-0) was 8.8 nM and the GI50 ([2]; A498) was 26 nM. For the same molecule, the GI50 ([2]; A549/ATCC) was 5 nM, the GI50 ([2]; ACHN) was 2 nM and the GI50 ([2]; BT-549) was 54 nM. It also gave a GI50 ([2]; CAKI-1) of 8.2 nM, a GI50 ([2]; CCRF-CEM) of 18 nM and a GI50 ([2]; COLO 205) of 22 nM. For the same molecule, the GI50 ([2]; DU-145) was 5.3 nM, the GI50 ([2]; EKVX) was 27 nM and the GI50 ([2]; HCC-2998) was 22 nM. For the same molecule, the GI50 ([2]; HCT-15) was 11 nM, the GI50 ([2]; HCT-116) was 46 nM and the GI50 ([2]; HL-60(TB)) was 29 nM. It also gave a GI50 ([2]; HOP-62) of 9.6 nM, a GI50 ([2]; HOP-92) of 53 nM and a GI50 ([2]; HT29) of 15 nM. For the same molecule, the GI50 ([2]; IGROV1) was 6.6 nM, the GI50 ([2]; K-562) was 17 nM and the GI50 ([2]; KM12) was 90 nM. The GI50 ([2]; LOX IMVI) was 3.2 nM, the GI50 ([2]; M14) was 14 nM and the GI50 ([2]; MALME-3M) was 19 nM. The GI50 ([2]; MCF7) was 1.5 nM, the GI50 ([2]; MDA-MB-231) was 37.8 nM and the GI50 ([2]; MDA-MB-435) was 25 nM. For the same molecule, the GI50 ([2]; MDA-MB-468) was 5.3 nM, the GI50 ([2]; MOLT-4) was 14 nM and the GI50 ([2]; NCI-H23) was 4.3 nM. It also gave a GI50 ([2]; NCI-H226) of 6.9 nM, a GI50 ([2]; NCI-H460) of 1.6 nM and a GI50 ([2]; NCI-H522) of 28 nM. The GI50 ([2]; OVCAR-3) was 51 nM, the GI50 ([2]; OVCAR-4) was 74 nM and the GI50 ([2]; OVCAR-5) was 23 nM. The GI50 ([2]; OVCAR-8) was 12 nM, the GI50 ([2]; PC-3) was 34 nM and the GI50 ([2]; RPMI-8226) was 35 nM. The GI50 ([2]; RXF 393) was 4.2 nM, the GI50 ([2]; SF-268) was 20 nM and the GI50 ([2]; SF-295) was 2.1 nM. It also gave a GI50 ([2]; SF-539) of 22 nM, a GI50 ([2]; SK-MEL-2) of 31 nM and a GI50 ([2]; SK-MEL-5) of 19 nM. For the same molecule, the GI50 ([2]; SK-MEL-28) was 22 nM, the GI50 ([2]; SK-OV-3) was 30 nM and the GI50 ([2]; SN12C) was 12 nM. It also gave a GI50 ([2]; SNB-19) of 18 nM, a GI50 ([2]; SR) of 2.7 nM and a GI50 ([2]; SW-620) of 18 nM. For the same molecule, the GI50 ([2]; T-47D) was 15 nM, the GI50 ([2]; TK-10) was 36 nM and the GI50 ([2]; U251) was 3.6 nM. The GI50 ([2]; UACC-62) was 4.2 nM, the GI50 ([2]; UACC-257) was 34 nM and the GI50 ([2]; UO-31) was 12 nM.

With `CN1CCN(C(=O)Oc2cc3c(c4ccccc24)C(CCl)CN3C(=O)c2cc3cc(OCCCN4CCC4)ccc3[nH]2)C2CSSCC21` (mixture of isomers) [Me-SS66T-CBI-AZI] the “IC50(HeLa)/IC50(A549)” value (HeLa-HRE cells) was 1.0, the IC50 (HeLa-HRE cells) was 49 nM and the IC50 (A549 cells) was 51 nM. The “release/reduction on GSH challenge” value [1] was “partial reduction”, the GI50 ([2]; 786-0) was 13 nM and the GI50 ([2]; A498) was 15 nM. For the same molecule, the GI50 ([2]; A549/ATCC) was 1.8 nM, the GI50 ([2]; ACHN) was 2.4 nM and the GI50 ([2]; BT-549) was 21 nM. It also gave a GI50 ([2]; CAKI-1) of 2.8 nM, a GI50 ([2]; CCRF-CEM) of 7.4 nM and a GI50 ([2]; COLO 205) of 15 nM. The GI50 ([2]; DU-145) was 3.9 nM, the GI50 ([2]; EKVX) was 12 nM and the GI50 ([2]; HCC-2998) was 3.5 nM. It also gave a GI50 ([2]; HCT-15) of 3.8 nM, a GI50 ([2]; HCT-116) of 6.8 nM and a GI50 ([2]; HL-60(TB)) of 9.9 nM. It also gave a GI50 ([2]; HOP-62) of 5.2 nM, a GI50 ([2]; HOP-92) of 18 nM and a GI50 ([2]; HT29) of 8.3 nM. It also gave a GI50 ([2]; IGROV1) of 17 nM, a GI50 ([2]; K-562) of 4.4 nM and a GI50 ([2]; KM12) of 16 nM. The GI50 ([2]; LOX IMVI) was 2.2 nM, the GI50 ([2]; M14) was 5.6 nM and the GI50 ([2]; MALME-3M) was 6.4 nM. For the same molecule, the GI50 ([2]; MDA-MB-231) was 19.2 nM, the GI50 ([2]; MDA-MB-435) was 13 nM and the GI50 ([2]; MDA-MB-468) was 2.6 nM. For the same molecule, the GI50 ([2]; MOLT-4) was 4.5 nM, the GI50 ([2]; NCI-H23) was 1.7 nM and the GI50 ([2]; NCI-H226) was 3.4 nM. For the same molecule, the GI50 ([2]; NCI-H522) was 11 nM, the GI50 ([2]; OVCAR-3) was 27 nM and the GI50 ([2]; OVCAR-4) was 28 nM. It also gave a GI50 ([2]; OVCAR-5) of 6.9 nM, a GI50 ([2]; OVCAR-8) of 3.3 nM and a GI50 ([2]; PC-3) of 19.7 nM. It also gave a GI50 ([2]; RPMI-8226) of 23 nM, a GI50 ([2]; RXF 393) of 5.7 nM and a GI50 ([2]; SF-268) of 9 nM. It also gave a GI50 ([2]; SF-295) of 2.2 nM, a GI50 ([2]; SF-539) of 5.2 nM and a GI50 ([2]; SK-MEL-2) of 19 nM. The GI50 ([2]; SK-MEL-5) was 2.3 nM, the GI50 ([2]; SK-MEL-28) was 4.8 nM and the GI50 ([2]; SK-OV-3) was 15 nM. For the same molecule, the GI50 ([2]; SN12C) was 10 nM, the GI50 ([2]; SNB-19) was 5.8 nM and the GI50 ([2]; SR) was 1.7 nM. The GI50 ([2]; SW-620) was 2.3 nM, the GI50 ([2]; T-47D) was 15 nM and the GI50 ([2]; TK-10) was 22 nM. For the same molecule, the GI50 ([2]; U251) was 1.6 nM, the GI50 ([2]; UACC-62) was 2.2 nM and the GI50 ([2]; UACC-257) was 15 nM. It also gave a GI50 ([2]; UO-31) of 3.8 nM.
